Measurements taken from US11299518B2, “Fusion respiratory syncytial virus inhibitors and use thereof” (priority 2016, dated 2022).

Assays:
[1] = target: T1, chymotrypsin (Bos taurus, UniProt P00766); assay: Proteolytic stability assay, chymotrypsin; assay type: in vitro ADME
T1 construct: purchased Thermo Fisher Scientific
Description: (§1) The compounds according to the invention are tested for their stability in a proteolytic stability assay as described below which is an important parameter to assess for the development of peptide therapeutics. Peptides of the invention 4bb, 4ca, 4a and their unstapled comparative peptide 4, as well as both SAH-RSVFBD isomers were treated with chymotrypsin and trypsin, and analysed by LC/MS to quantify the reaction products over time.
(§2) In vitro proteolytic degradation was measured via LC-MS using an Agilent Infinity 1280 UHPLC system coupled to an Agilent quadruple-time-of-flight (QTOF) 6530 with an Agilent Jet Stream electrospray ionisation (AJS ESI) source (all Agilent Technologies, Waldbronn, Germany). 5 μl of digested sample were injected onto a C18 column (Zorbax Eclipse Plus RRHD, 1.8 μm, 2.1*100 mm, Agilent Technologies, Waldbronn, Germany) equilibrated with solvent A and eluted with a flow rate of 0.4 ml/min over a 5-95% gradient of solvent B in 5 minutes, followed by 1.5 minutes at 95% and 0.5 minutes post-time where solvent A was 95% water, 5% acetonitrile with 0.2% formic acid and solvent B was 5% water, 95% acetonitrile with 0.2% formic acid. The AJS ESI source was operated with a capillary voltage of 4000V and a nozzle voltage of 600V with a drying gas temperature of 325° C. and flow rate of 10 l/min, nebulising gas pressure of 20 psi, and a sheath gas temperature of 300° C. and flow rate of 11l/min. Mass spectra were acquired in the positive ion mode from 100-3200 m/z at a rate of 1 scan per second in extended dynamic range (2 GHz) mode. The fragmentor, skimmer and octopole Radio Frequency voltages were set to 200, 60 and 750 V respectively. Data were acquired and analysed with Agilent MassHunter Workstation (version B.05).
(§3) Peptide digestion was performed as it follows: 10 μl of peptide at 0.29 mM in 50/50 acetonitrile/water were dissolved in 990 μl 100 mM Tris-HCl, pH 8.0 with 10 mM CaCl2. Following measurement of the undigested (to) sample, 10 μl of chymotrypsin at 50 μg/ml in 100 mM Tris-HCl, pH 8.0 with 10 mM CaCl2 were added and the sample was vortexed and placed immediately in the autosampler, set to 25° C. Trypsin digestion was performed as with chymotrypsin except that the buffer was in 50 mM Tris-HCl, pH8. Chymotrypsin and trypsin were purchased from Thermo Fisher Scientific.
(§4) The level of intact peptide was quantified by serial injection over time. Integration of the intact peptide compound chromatogram was performed using the Agilent Molecular Feature Extraction (MFE) algorithm. A plot of the intact peptide MFE peak area over time gave an exponential decay curve, from which the half-life was determined using MatLab […].

[2] = Proteolytic stability assay, trypsin; assay type: in vitro ADME; conditions: trypsin (isolated protease), pH 8; 50 mM Tris-HCl pH8, 25° C., LC-MS; read-out: t1/2 (min) Trypsin
Description: as §1, §2, §3, §4

Ac-EKINQSLAFIRKSDELLHNV-NH2 (N-terminus and C-terminus assumed) [Peptide 4, reference compound]
half-life at 2.9 µM ([1]; chymotrypsin (isolated protease), 100 mM Tris-HCl pH 8.0, 10 mM CaCl2, 25° C., LC-MS, read-out: t1/2 (min) Chymotrypsin): 4.5 min
time to full degradation ([1]; treated with chymotrypsin and trypsin): 10 min
half-life [2]: 5 min
